For eleven compounds, mortality results are on record in patent publication US8648081B2 (Eli Lilly and Company, priority 2011, dated 2014).

Structures are written as SMILES. Where two headings read alike, the source gives them in different places.

This experiment relates to Lone star tick larvae (Amblyomma americanum). In words: In Vitro Larval Immersion Microassay (LIM). The conditions noted are these: read-out: % Efficacy (percent larval mortality). The method, then: In Vitro Larval Immersion Microassay (LIM)
The larval immersion microassay may be conducted as described in White, et al., J. Med. Entomol. […] Briefly, experimental test articles are formulated in dimethylsulfoxide (DMSO) to prepare a stock solution at a concentration of 10 mM. […] Approximately 30-50 Lone star tick larvae (Amblyomma americanum) are submerged into each well containing experimental test articles. After a 30 minute immersion period, larvae are removed with a wide-bore pipette tip in 0.05 ml of fluid, dispensed into a commercial paper tissue biopsy bag which is sealed at the top with a plastic dialysis clip, inverted and allowed to air dry for 60 minutes. Bags containing larvae are then incubated at approximately 27 degrees Celsius and >90% relative humidity. After 24 hours, bags are opened, live and dead larvae are counted and percent larval mortality is calculated as follows: % Efficacy=(# dead larvae)/(# total larvae)×100.

Usually mortality stands for the percentage killed. Take `O=C(NC1CCN(CC(F)(F)F)C1=O)c1sc(C2=NOC(c3cc(Cl)c(F)c(Cl)c3)(C(F)(F)F)C2)c2c1CCCC2` (centres unmarked) [Example 82]: the mortality at 300 µM is not below 80%.
The same measure, in the same setting: under `O=C(NC1CCOCC1)c1sc(C2=NOC(c3cc(Cl)c(F)c(Cl)c3)(C(F)(F)F)C2)c2c1CCCC2` (centres unmarked) [Example 83, 3-(5-(3,5-dichloro-4-fluorophenyl)-5-(trifluoromethyl)-4,5-dihydro-isoxazol-3-yl)-N-(tetrahydro-2H-pyran-4-yl)-4,5,6,7-tetrahydro-benzo[c]thiophene-1-carboxamide] stands not below 80%.
Consider `O=C(NC1CCN(C2CC2)C1=O)c1sc(C2=NOC(c3cc(Cl)c(F)c(Cl)c3)(C(F)(F)F)C2)c2c1CCCC2` (centres unmarked) [Example 84, N-(1-cyclopropyl-2-oxopyrrolidin-3-yl)-3-(5-(3,5-dichloro-4-fluorophenyl)-5-(trifluoromethyl)-4,5-dihydroisoxazol-3-yl)-4,5,6,7-tetra-hydrobenzo[c] thiophene-1-carboxamide], for which the mortality at 300 µM was not below 80%.
As to `O=C1CCC(NC(=O)c2sc(C3=NOC(c4cc(Cl)cc(Cl)c4)(C(F)(F)F)C3)c3c2CCC3)CC1` (centres unmarked) [Example 85, 3-(5-(3,5-dichloro-phenyl)-5-(trifluoro-methyl)-4,5-dihydro-isoxazol-3-yl)-N-(4-oxocyclohexyl)-5,6-dihydro-4H-cyclopenta[c] thiophene-1-carboxamide], the mortality at 300 µM was not below 80%.
The same measure, in the same setting: under `O=C(NC1CCN(CC(F)(F)F)C1=O)c1sc(C2=NOC(c3cc(Cl)cc(Cl)c3)(C(F)(F)F)C2)c2c1CCC2` (centres unmarked) [Example 86, 3-(5-(3,5-dichloro-phenyl)-5-(trifluoro-methyl)-4,5-dihydro-isoxazol-3-yl)-N-(2-oxo-1-(2,2,2-trifluoroethyl)pyrrolidin-3-yl)-5,6-dihydro-4H-cyclopenta[c] thiophene-1-carboxamide] stands not below 80%; under `O=C(N[C@@H]1CCNC1=O)c1sc(C2=NO[C@@](c3cc(Cl)cc(Cl)c3)(C(F)(F)F)C2)c2c1CCCC2` [Example 87b, 3-((S)-5-(3,5-dichlorophenyl)-5-(trifluoromethyl)-4,5-dihydroisoxazol-3-yl)-N—((R)-2-oxopyrrolidin-3-yl)-4,5,6,7-tetrahydrobenzo[c]thiophene-1-carboxamide], not below 80%; under `N#CCNC(=O)CNC(=O)c1sc(C2=NOC(c3cc(Cl)cc(Cl)c3)(C(F)(F)F)C2)c2c1CCCC2` (centres unmarked) [Example 94, N-(2-(cyanomethylamino)-2-oxoethyl)-3-(5-(3,5-dichlorophenyl)-5-(trifluoromethyl)-4,5-dihydroisoxazol-3-yl)-4,5,6,7-tetrahydrobenzo[c]thiophene-1-carboxamide], not below 80%.
The same measure, in the same setting: under `C#CCNC(=O)CNC(=O)c1sc(C2=NOC(c3cc(Cl)cc(Cl)c3)(C(F)(F)F)C2)c2c1CCCC2` (centres unmarked) [Example 95, 3-(5-(3,5-dichlorophenyl)-5-(trifluoromethyl)-4,5-dihydroisoxazol-3-yl)-N-(2-oxo-2-(prop-2-ynylamino)ethyl)-4,5,6,7-tetrahydrobenzo [c]thiophene-1-carboxamide] stands not below 80%.
Turning to `N#CCNC(=O)CNC(=O)c1sc(C2=NOC(c3sc(Cl)c(Cl)c3Cl)(C(F)(F)F)C2)c2c1CCCC2` (centres unmarked) [Example 96, N-(2-(cyanomethylamino)-2-oxoethyl)-3-(5-(3,4,5-trichlorothiophen-2-yl)-5-(trifluoromethyl)-4,5-dihydroisoxazol-3-yl)-4,5,6,7-tetrahydro-benzo[c]thiophene-1-carboxamide], the mortality at 300 µM (tested at 300 micromolar, 30 minute immersion, mortality counted after 24 hours) was not below 80%.
As for `FC(F)(F)C1(c2cc(Cl)cc(Cl)c2)CC(c2cc3ccncc3s2)=NO1` (centres unmarked) [Example 230, 2-[5-(3,5-Dichloro-phenyl)-5-tri-fluoromethyl-4,5-dihydro-isoxazol-3-yl]-thieno[2,3-c] pyridine], the mortality at 300 µM is not below 80%.
The same measure, in the same setting: as for `FC(F)(F)C1(c2cc(Cl)cc(Cl)c2)CC(c2cc3cc(Br)cnc3s2)=NO1` (centres unmarked) [Example 231, 5-Bromo-2-[5-(3,5-dichloro-phenyl)-5-trifluoromethyl-4,5-dihydro-isoxazol-3-yl]-thieno[2,3-b]pyridine], the figure is not below 80%.
